For 8 compounds, TGI results are on record in PubChem BioAssay (NCI).

The structures appear in SMILES notation.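 Five compound concentrations were applied to cells in 96-well plates for 48 hours; endpoints were derived by simple linear interpolation of the resulting dose-response curve. At the TGI there is no net growth.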

Test systems include 786-0 renal; HCC-2998 colon; HOP-92 NSCLC; HS 578T breast; MDA-MB-435; NCI-H460 lung; NCI/ADR-RES ovarian; OVCAR-4 ovarian; OVCAR-8 ovarian; SF-268 CNS; SF-295 CNS; SNB-75 CNS; SR leukemia; SW-620 colon; UACC-62 melanoma; MDA-MB-231 breast; RPMI-8226 leukemia; UO-31 renal; MOLT-4 leukemia; RXF 393 renal.
What all share (test): NCI anticancer screen, dose series, 48 h

In the case of `N#CCCC1(CCC#N)CCCCCCCCC(CCC#N)(CCC#N)C(=O)C1=O`, the TGI with 786-0 renal, in the assay with HCC-2998 colon, with HOP-92 NSCLC, in the assay on HS 578T breast, in the assay with MDA-MB-435 and in the assay with NCI-H460 lung was over 100 µM throughout. The TGI with NCI/ADR-RES ovarian, in the assay with OVCAR-4 ovarian, in the assay with OVCAR-8 ovarian, in the assay with SF-268 CNS, in the assay on SF-295 CNS and in the assay with SNB-75 CNS was over 100 µM throughout. Besides, the TGI in the assay with SR leukemia, with SW-620 colon and in the assay on UACC-62 melanoma was over 100 µM throughout.
Turning to `CCOC(=O)C1OC(C2(C)OC3(OC4(C=CC3O)OC(C(C)C(=O)C(C)C(O)C(C)CC(C)c3c(Cl)cc(C)c(O)c3C(=O)O)C(C)CC4C)C(C)C2OC)CC1O` (stereo not drawn), the TGI in the assay with 786-0 renal stood at 4.47 µM; with HCC-2998 colon it was 0.264 µM; in the assay with HOP-92 NSCLC, 5.77 µM; in the assay with HS 578T breast, 11.7 µM; in the assay on MDA-MB-231 breast, 2.96 µM; with MDA-MB-435, 1.22 µM. Besides, the TGI in the assay on NCI-H460 lung was 0.714 µM; in the assay with NCI/ADR-RES ovarian, 20.4 µM; in the assay with OVCAR-4 ovarian, 4.53 µM; in the assay on OVCAR-8 ovarian, 13.3 µM; in the assay with RPMI-8226 leukemia, over 14.7 µM; in the assay with SF-268 CNS, 6.85 µM. The TGI is 3.89 µM in the assay with SF-295 CNS; 0.919 µM in the assay on SNB-75 CNS; 4.53 µM in the assay with SR leukemia; 10.5 µM in the assay with SW-620 colon; 1.25 µM in the assay with UACC-62 melanoma; 3.95 µM in the assay with UO-31 renal.
As to `COc1ccc2oc(OC)c(CC=C(C)C)c(=O)c2c1C`, the TGI with 786-0 renal, in the assay on HCC-2998 colon, with HS 578T breast, in the assay with MDA-MB-231 breast, in the assay with MDA-MB-435 and with MOLT-4 leukemia was over 100 µM each time. Further, the TGI in the assay with NCI-H460 lung, in the assay on NCI/ADR-RES ovarian, in the assay with OVCAR-8 ovarian, with RPMI-8226 leukemia, in the assay with SF-268 CNS and with SF-295 CNS was over 100 µM throughout. The TGI with SNB-75 CNS, in the assay on SR leukemia, in the assay with SW-620 colon, in the assay with UACC-62 melanoma and with UO-31 renal was over 100 µM throughout.
Regarding `COC(=O)C1CCC(=O)N1C(c1ccc(OC)cc1)c1ccc(OC)cc1` (stereo not drawn), the TGI in the assay on 786-0 renal, in the assay with HCC-2998 colon, in the assay on HOP-92 NSCLC, in the assay with HS 578T breast, in the assay with MDA-MB-231 breast and in the assay on MDA-MB-435 was over 100 µM each time. Further, the TGI in the assay on MOLT-4 leukemia, in the assay with NCI-H460 lung, with NCI/ADR-RES ovarian, in the assay on OVCAR-4 ovarian, with OVCAR-8 ovarian and in the assay on RPMI-8226 leukemia was over 100 µM throughout. Moreover, the TGI in the assay on SF-268 CNS, with SF-295 CNS, with SNB-75 CNS, in the assay on SR leukemia, with SW-620 colon and with UACC-62 melanoma was over 100 µM each time. The compound also came in with a TGI in the assay with UO-31 renal of over 100 µM.
For `Nc1nc(N)c2ncn(Cc3ccccc3CCl)c2n1`, the TGI in the assay with 786-0 renal, with HOP-92 NSCLC, in the assay on HS 578T breast, in the assay on MDA-MB-231 breast, with MDA-MB-435 and in the assay on MOLT-4 leukemia was over 100 µM throughout. Moreover, the TGI in the assay on NCI-H460 lung, with NCI/ADR-RES ovarian, in the assay on OVCAR-4 ovarian, with OVCAR-8 ovarian, in the assay on RPMI-8226 leukemia and with SF-268 CNS was over 100 µM in each case. The TGI in the assay with SF-295 CNS, with SNB-75 CNS, in the assay on SR leukemia, in the assay with SW-620 colon, with UACC-62 melanoma and in the assay on UO-31 renal was over 100 µM throughout.
As for `O=C1CCCC/C1=C\c1ccc(Br)cc1`, the TGI is 30.9 µM in the assay on 786-0 renal; 44.4 µM in the assay on HCC-2998 colon; 35.1 µM in the assay with HOP-92 NSCLC; 52.3 µM in the assay on HS 578T breast; 37.7 µM in the assay with MDA-MB-231 breast; 30.6 µM with MDA-MB-435. Further, the TGI in the assay on MOLT-4 leukemia was 6.24 µM; in the assay with NCI-H460 lung, 98.2 µM; with NCI/ADR-RES ovarian, 12.2 µM; with OVCAR-4 ovarian it was 46.7 µM; in the assay with OVCAR-8 ovarian, over 100 µM; in the assay with RPMI-8226 leukemia it was 57.3 µM. In addition, the TGI was 36.3 µM in the assay with SF-268 CNS; 49.7 µM in the assay with SF-295 CNS; 29.8 µM with SNB-75 CNS; over 100 µM with SR leukemia; over 100 µM in the assay with SW-620 colon; 19.6 µM in the assay on UACC-62 melanoma. Further, the TGI with UO-31 renal is 29.6 µM.
Regarding `O=c1[nH]c(Nc2cc(Cl)cc(Cl)c2)nc2nc[nH]c12`, the TGI was over 75 µM with 786-0 renal; over 75 µM in the assay on HCC-2998 colon; over 75 µM in the assay on HOP-92 NSCLC; 68.5 µM in the assay on HS 578T breast; over 75 µM in the assay on MDA-MB-231 breast; over 75 µM with MDA-MB-435. Further, the TGI with MOLT-4 leukemia, with NCI-H460 lung, with NCI/ADR-RES ovarian, in the assay on OVCAR-4 ovarian, in the assay with OVCAR-8 ovarian and with RPMI-8226 leukemia was over 75 µM in each case. Also, the TGI in the assay with RXF 393 renal, with SF-268 CNS, with SF-295 CNS, in the assay on SNB-75 CNS, in the assay with SW-620 colon and in the assay on UACC-62 melanoma was over 75 µM each time. In the assay on UO-31 renal, this compound yielded a TGI of over 75 µM.
On to `Cc1ccc(OC2CC(n3cnc4ncnc(Cl)c43)OC2Oc2ccc(C)cc2)cc1` (stereo not drawn), for which the TGI in the assay on 786-0 renal was over 100 µM; in the assay on HCC-2998 colon it was 24.9 µM; in the assay on HOP-92 NSCLC, over 100 µM; with HS 578T breast it was 76.9 µM; in the assay with MDA-MB-231 breast, 50.2 µM; in the assay with MDA-MB-435, over 100 µM. Besides, the TGI is over 100 µM in the assay on MOLT-4 leukemia; over 100 µM in the assay on NCI-H460 lung; 64.9 µM with NCI/ADR-RES ovarian; over 100 µM with OVCAR-4 ovarian; 26.8 µM in the assay with OVCAR-8 ovarian; 50.1 µM in the assay with SF-268 CNS. Moreover, the TGI in the assay on SF-295 CNS is 56.7 µM; in the assay with SNB-75 CNS it was 69.1 µM; in the assay on SR leukemia it was over 100 µM; in the assay with SW-620 colon it was over 100 µM; in the assay with UACC-62 melanoma, 96.7 µM; in the assay with UO-31 renal, 23.9 µM.
